For one test, the system named is rhesus monkey ATGL. Put plainly: TAG hydrolase assay, Expi293 lysates expressing ATGL orthologue. As to conditions: NG-497 50 μM. In kind it is biochemical. From the text:
(§1) We previously developed Atglistatin (Ai), a selective inhibitor of mouse ATGL,[31],[32] which is ineffective against human ATGL.[17] Ai acts as a competitive inhibitor targeting the minimal active domain of ATGL ranging from aa 1–254.[33] This domain is highly conserved in different mammalian species (∼90% identity, Table 1) and comprises the patatin-like domain, eponymous for all members of the patatin-like phospholipase domain-containing (PNPLA) protein family.[34] We first investigated the species selectivity of Ai by performing TAG hydrolase assays[35] with lysates from Expi293 cells expressing ATGL orthologues of different species. The activity of ATGL is strongly stimulated by the co-activator protein comparative gene identification-58 (CGI-58, also known as α/β hydrolase domain containing 5, ABHD5)[36] and can be suppressed by the inhibitory protein G0/G1 switch 2 (G0S2).[37] We therefore determined ATGL activity in the presence and absence of mouse CGI-58, mouse G0S2, and Ai. As shown in Figure 1a–i, all ATGL orthologues were expressed, enzymatically active, stimulated by mouse CGI-58, and inactivated by mouse G0S2. Ai inhibited mouse (Figure 1a), rat (Figure 1b), goat (Figure 1c), dog (Figure 1e), and marmoset ATGL (Figure 1f), but not pig (Figure 1d), rhesus monkey (Figure 1g), or human ATGL (Figure 1h).
(§2) Experimental details, materials, and methods
(§3) Expression of recombinant ATGL constructs and preparation of cell lysates. Expi293 cells were cultivated in Expi293 Expression Medium (GIBCO, Thermo Fisher Scientific, Waltham, USA) at standard conditions (37°C, 5% CO2, 95% humidified atmosphere, 125 rpm). DNA constructs containing ATGL from different species and chimeric ATGL variants in pcDNA3.1(+)myc-His C Vector were obtained from BioCat GmbH (Heidelberg, Germany). Cells were transfected with ExpiFectamine293 Transfection Kit (GIBCO) in Opti-Mem reduced serum medium (GIBCO) according to the manufacturer’s instructions. After 48 h, cells were harvested by centrifugation and washed three times with PBS. Cells were disrupted in buffer A (0.25 M sucrose, 1 mM EDTA, 1 mM dithiothreitol, 20µg/ml leupeptin, 2 µg/ml antipain, 1 µg/ml pepstatin, pH 7.0) by sonication (Virsonic 475, Virtis, Gardiner, USA). Nuclei and debris were removed by centrifugation at 1,000 g and 4°C for 10 min. Protein concentrations were determined using Bio-Rad protein assay (Bio-Rad 785, Bio-Rad Laboratories, Munich, Germany) using BSA as standard.
(§4) Expression and purification of mouse CGI-58. CGI-58 was expressed and purified as described 1. In brief, the coding sequence of mouse Cgi-58 was cloned into pHis-Sumo and co-transformed with the plasmid pTf16 expressing the chaperone Tig into E. coli BL21(DE3). Cells were cultured overnight at 37°C and 180 rpm in the presence of 40 µg/ml kanamycin and 34 µg/ml chloramphenicol. Thereafter, cells were transferred into fresh LB medium, grown until OD600 of 0.6, and expression was induced by the addition of 0.5 mM IPTG. After overnight incubation at 30°C, cells were harvested at 4,500 x g and 4°C for 20 min, washed in 1x PBS, and resuspended in lysis buffer (20 mM Tris/HCl pH 7.8, 300 mM NaCl, 30 mM imidazole, 0.1% IGEPAL CA-630, 3.5 mM β-mercaptoethanol, 20 µg/ml leupeptin, 2 µg/ml antipain and 1 µg/ml pepstatin). Cells were incubated with 1 mg/ml lysozyme at 4°C for 20 min, disrupted by sonication, and lysates were centrifuged at 30,000 x g and 4°C for 40 min. His-CGI-58 was purified from the supernatant using an ÄKTA pure system (Cytiva, Uppsala, Sweden) equipped with a 5 ml HisTrap […]
(§5) Expression and purification of mouse G0S2. Chemically competent E. coli ArcticExpress (DE3) cells were transformed with the pST50-SMT3-TEV-mG0S2-His expression plasmid, plated on LB agar plates containing 100 ampicillin, and incubated […] overnight at 37°C. The next day, 10 ml LB medium supplemented with 100 μg/ml ampicillin, 20 μg/ml gentamycin and 2% glucose were inoculated with a single colony and incubated overnight at 37°C. […]

The next test relates to pig ATGL. The description is as above. It is filed as biochemical. As to conditions: NG-497 50 μM.
Source text: as §1, §2, §3, §4, §5

Data on 1 compound can be found in publication PMC9011347, “Small-Molecule Inhibitors Targeting Lipolysis in Human Adipocytes” (Journal of the American Chemical Society, 2022).

Structures are written as SMILES.

As for `CCOc1ccc(-c2cc(OC)cc(C(=O)OC(C)C)n2)cc1` [NG-497], the “inhibition of ATGL orthologue” value in the test with rhesus monkey ATGL is given as “inactivates”. The “reduction in TAG hydrolase activity” value in the test on pig ATGL is “less than 20%”.
